Measurements reported in patent US8030359B2, “Polymer formulations of CETP inhibitors” (Merck Sharp & Dohme Corp., priority 2006, dated 2011).
Where two headings read alike, the source gives them in different places.

What was measured:
[1] = Pharmacokinetics (bioavailability) of formulations dosed to fasted Rhesus monkeys; type: in vivo; details: rhesus monkey, blood, 3 fasted Rhesus monkeys
Procedure: Examples of preparations of pharmaceutical formulations are provided below. Bioavailability is determined in vivo by dosing trial formulations and/or other formulations of the active pharmaceutical ingredient (API) to Rhesus monkeys (normally three monkeys per trial) at a dose of 1 mg/kg of the API and then measuring the amount of API in the serum or blood as a function of time. Comparisons are made with other formulations containing the same amount and same concentration of the API, such as a solid formulation with conventional excipients or a liquid filled gelatin capsule containing equal parts by weight of Tween 80 and Cremophor EL and varying amounts of the API. The API is any compound of Formula I to Ij, and most often is Compound H.
A formulation as described above comprised of 8.8% (w/w) Compound II, 35.2% HPMCAS-LF, 25.75% lactose monohydrate, 25.75% microcrystalline cellulose (Avicel PH 102), 3% croscarmellose sodium, 0.5% colloidal silicon dioxide, and 1% magnesium stearate was transferred to capsules (568 mg fill weight), with each capsule containing […] of Compound H. The pharmacokinetic profile of this composition was tested in a panel of 3 fasted Rhesus monkeys with a single dose of 1 mg/kg.
For comparison, a formulation containing Compound II without the polymer was made and tested, as follows. The non-polymer formulation contained 5% of Compound II, 5% SDS surfactant, 1.5% HPC-EXF, 1% croscarmellose sodium, and 87.5% lactose, and was prepared by wet granulation and used in a dry-filled capsule. The pharmacokinetic profile of this composition was measured by administering a single 1 mg/kg dose to a panel of 3 fasted Rhesus monkeys and then measuring the amount of Compound II in the blood of the monkeys for a period of at least 24 hours. […] The pharmacokinetics are not as good for the “conventional” formulation as for the polymer formulations, even though the “conventional” formulation used as a control included a surfactant.
The last 3 rows summarize pharmacokinetic data obtained by administering a single dose of the formulation at a dose of 1 mg/kg to panels of 3 fasted Rhesus monkeys and measuring the concentration of Compound II in the blood for a period of at least 24 hours. The compositions can be varied more broadly to obtain desired properties, as summarized after the table.

[2] = Phase III clinical trials, long-term outcomes study, group taking the drug compared with the control group; cited from earlier work
[3] = some patients who were taking torcetrapib; cited from earlier work
[4] = po, 1 mg/kg, HME tablet formulation with 8% Compound II, 28% copovidone, 4% Vitamin E TPGS, single dose 1 mg/kg
[5] = po, 1 mg/kg, HME tablet formulation with 10% Compound II, 35% copovidone, 5% Vitamin E TPGS, single dose 1 mg/kg
[6] = po, 1 mg/kg, HME tablet formulation with 12% Compound II, 42% copovidone, 6% Vitamin E TPGS, single dose 1 mg/kg
[7] = po, 1 mg/kg, spray dried polymer formulation in capsules (8.8% Compound II, 35.2% HPMCAS-LF), single dose 1 mg/kg, 24 hours
[8] = oral, non-polymer "conventional" control formulation (5% Compound II, 5% SDS, 1.5% HPC-EXF, 1% croscarmellose sodium, 87.5% lactose), wet granulation, dry-filled capsule, single 1 mg/kg dose

Cmax [1, 4] [nM]	Tmax [1, 4] [h]	AUC(0-t) ([1]; po, 1 mg/kg, HME tablet formulation with 8% Compound II, 28% copovidone, 4% Vitamin E TPGS, single dose 1 mg/kg, read-out: AUC (0-24 hrs)) [µM·h]	Cmax [1, 5] [nM]	Tmax [1, 5] [h]	AUC(0-t) ([1]; po, 1 mg/kg, HME tablet formulation with 10% Compound II, 35% copovidone, 5% Vitamin E TPGS, single dose 1 mg/kg, read-out: AUC (0-24 hrs)) [µM·h]	Cmax [1, 6] [nM]	Tmax [1, 6] [h]	AUC(0-t) ([1]; po, 1 mg/kg, HME tablet formulation with 12% Compound II, 42% copovidone, 6% Vitamin E TPGS, single dose 1 mg/kg, read-out: AUC (0-24 hrs)) [µM·h]	Cmax [1, 7] [nM]	Tmax [1, 7] [h]	AUC(0-t) ([1]; po, 1 mg/kg, spray dried polymer formulation in capsules (8.8% Compound II, 35.2% HPMCAS-LF), single dose 1 mg/kg, 24 hours, read-out: AUC0-24) [µM·h]	Cmax [1, 8] [nM]	Tmax [1, 8] [h]	SMILES	mortality versus control group [2]	effect on blood pressure [3]
100 ± 10	4 ± 2	1.73 ± 0.28	100 ± 10	5.3 ± 2	1.62 ± 0.27	130 ± 10	6.7 ± 1.2	2.29 ± 0.21	120 ± 80	6.7 ± 2.3	1.99 ± 1.1	40 ± 30	18.7 ± 9.2	COc1cc(F)c(C(C)C)cc1-c1ccc(C(F)(F)F)cc1CN1C(=O)O[C@H](c2cc(C(F)(F)F)cc(C(F)(F)F)c2)[C@@H]1C [Compound II, (4S,5R)-5-[3,5-bis(trifluoromethyl)phenyl]-3-{[4′-fluoro-5′-isopropyl-2′-methoxy-4-(trifluoromethyl)biphenyl-2-yl]methyl}-4-methyl-1,3-oxazolidin-2-one]		
														CCOC(=O)N1c2ccc(C(F)(F)F)cc2[C@@H](N(Cc2cc(C(F)(F)F)cc(C(F)(F)F)c2)C(=O)OC)C[C@H]1CC [torcetrapib]	increase in mortality	increase blood pressure
